Earlier results in publication PMC9042378 (RSC Advances, 2021).

System: Tyr

Row | Compound | Tyr inhibition type
1 | CCC(C)C(=O)c1c(O)c(Cc2c(O)c(C)c(O)c(C(=O)C(C)C)c2O)c(O)c2c1OC(C)(C)C=C2 (centres unmarked) [mallotophilippen A] | Mixed inhibition
2 | O=c1cc(CO)occ1O [kojic acid] | Mixed inhibition
3 | mallotophilippen B | Mixed inhibition
4 | O=C1c2c(O)cc(O)cc2O[C@H](c2cc(O)c(O)c(O)c2)[C@H]1O [dihydromyricetin] | Mixed inhibition
5 | O=C(O[C@@H]1Cc2c(O)cc(O)cc2O[C@@H]1c1ccc(O)c(O)c1)c1cc(O)c(O)c(O)c1 [epicatechin gallate] | Mixed inhibition
